EC50 data for 7 compounds are collected here from patent US10398706B2, “Heteroaryldiazepine derivatives as RSV inhibitors” (Enanta Pharmaceuticals, Inc., priority 2017, dated 2019).

The test system of the first test is Human RSV-A (“Long” strain). The experiment in a line: RSV-A in vitro cytoprotection assay in HEp-2 cells (ATPlite readout). It is filed as cell-based, Human respiratory syncytial virus. The note with it: HEp-2 cells, 4-day incubation, ATPlite cell viability; read-out: Human RSV-A (“Long” strain) EC50. From the text: RSV is a single stranded negative sense RNA virus that causes respiratory tract infections which can be dangerous to infants, the elderly, and immunosuppressed individuals. Currently there is no vaccine, and therapeutic options are both costly and of limited effectiveness. These approved treatments are Ribavirin, and Palivizumab/Synagis (a monoclonal antibody). RSV has two genotypes, A and B, which differ primarily in the structure of the virus' surface “G” attachment protein. Our current primary screen focusses on RSV-A and uses an in vitro cytoprotection assay where compounds are added in 2-fold dilutions to cells which are then subjected to fully replicative viral particles. Cell viability is measured several days later along with separate measurements of compound cytotoxicity. This report focuses on the results of our most recent screening of compounds.
HEp-2 cells, (originally derived from tumors grown in irradiated-cortisonised weanling rats that had been injected with epidermoid carcinoma tissue from a person's larynx, but later found to be indistinguishable from HeLa cells by PCR DNA analysis), were used for the culturing of genotype A, “Long” strain RSV. Flasks were inoculated with RSV and viral stocks were collected once cytopathic effect (CPE) was greater than 90%. Viral stocks in 25% sucrose media were snap frozen using liquid nitrogen to increase viral stability. Viral stock titers were quantified by tissue culture infectious dose 50% (TCID50) using 8,000 cells per well and 3-fold viral dilutions across a 96-well plate, cultured for 4 days.
Following extensive parameter testing, the final assay is run as follows: HEp-2 cells are seeded into the inner 60 wells of a 96-well plate at 8,000 cells per well in a volume of 50 μL using Growth Media (DMEM without phenol red, 1% L-Glut, 1% Penn/Strep, 1% nonessential amino acids, 10% FBS). 2-fold serial dilutions of control and test compounds are added to the wells in duplicate in a total volume of 25 μL. Viral stock is then added to the wells in a volume of 25 μL, bringing the total volume of each well to 100 μL. Each 96-well plate has a control column of 6 wells with cells and virus but no compound (negative control, max CPE), a column with cells but no compound or virus (positive control, minimum CPE), and a column with no cells or virus or compound (background plate/reagent control). The control wells with cells but no virus are given an additional 25 uL of growth media containing an equal quantity of sucrose as those wells receiving the viral stock in order to keep consistent in media and volume conditions. The outer wells of the plate are filled with 125 μL of growth media to act as a thermal and evaporative moat around the test wells. Following a 4-day incubation period, the plates are read using ATPlite (50 uL added per well), which quantifies the amount of ATP (a measure of cell health) present in each well. Assay plates are read using the Envision luminometer. […] EC50 ranges are as follows: A<0.4 μM; B 0.4-0.8 μM; C>0.8 μM.
Turning to `Cc1sc2c(c1C)C(c1ccccc1)=N[C@H](Nc1nnc(-c3ncc(C(F)(F)F)cc3N3CCOCC3)o1)C(=O)N2` [Example 8], the EC50 is 0.4 to 0.8 µM.

Regarding `Cc1cc2c(s1)NC(=O)[C@@H](Nc1nnc(-c3ncc(C(F)(F)F)cc3N3CCOCC3)o1)N=C2c1ccccc1` [Example 6], the EC50 is under 0.4 µM.

The same test, now with this note: human respiratory syncytial virus, HEp-2, 96 h, read-out: Human RSV-A (“Long” strain) EC50.
For the compound `O=C1Nc2sccc2C(c2ccccc2)=NC1Nc1nnc(-c2ncc(C(F)(F)F)cc2N2CCOCC2)o1` (stereo not shown) [Example 5], the EC50 is 0.4 to 0.8 µM.

As to `O=C1Nc2ccsc2C(c2ccccc2)=NC1Nc1nnc(-c2ncc(C(F)(F)F)cc2N2CCOCC2)o1` (stereo not shown) [Example 4], the EC50 is 0.4 to 0.8 µM.

For `O=C1Nc2cnccc2C(c2ccccc2)=NC1Nc1nnc(-c2ccc(F)cc2)o1` (stereo not shown) [Example 3], the EC50 was over 0.8 µM. Regarding `O=C1Nc2ncccc2C(c2ccccc2)=NC1Nc1nnc(-c2ccc(F)cc2)o1` (stereo not shown) [Example 2], the EC50 is over 0.8 µM. For `O=C1Nc2cccnc2C(c2ccccc2)=NC1Nc1nnc(-c2ccccc2)o1` (stereo not shown) [Example 1], the EC50 was over 0.8 µM.

By EC50 is commonly meant the midpoint of the concentration-response curve.
